What is called melting point is the temperature of the solid-liquid transition.

Series [1] has as its system human prostate cancer cells (PC3). In words: Assessment of cytotoxicity by SRB assay, PC3 cells. Type of series: cell-based. The following applies: 0.01 μM to 100 μM, 72 h. The procedure: (§1) The human prostate cancer cells (PC3) and human osteosarcoma cells (MG-63) were obtained from Nawah Scientific Inc. (Mokatam, Cairo, Egypt) and cultured in DMEM (Dulbecco's modified eagle's medium), Gibco, USA, supplemented with fetal bovine serum (FBS) at a concentration of 10% and 100 U/mL of penicillin and streptomycin (PS). The Cells were incubated at 37° C. in a humidified environment that contained 5% CO2.
(§2) Cells were seeded in 96-well plates as aliquots of 100 μL cell suspension and incubated in a complete media for 24 h. Afterward, cells were treated with 6-amino-8,9-di(4-methoxyphenyl)-2-oxo-3,9-dihydro-2H-[1,3]thiazolo[5′,4′:5,6]pyrano[2,3-b]pyridine-7-carbonitrile (2) at diverse concentrations ranging from 0.01 μM to 100 μM for 72 h. Then, cells were fixed at 4° C. for one hour with 150 μL of 10% trichloroacetic acid (TCA). After washing the cells five times with distilled water, 70 μL of sulforhodamine (SRB) solution (0.4% w/v) was added and incubated for 10 min at room temperature in a dark place. […] Then, 150 μL of Tris pH 10.5 (10 mM) was added, and the absorbance was measured at 540 nm using a BMG LABTECH®-FLUOstar Omega microplate reader (Ortenberg, Germany). Half maximal inhibitory concentration (IC50) values were calculated for each experiment using GraphPad Prism 6 software. […]
(§3) The inhibition was calculated using the following equation: Inhibition %=100−Average Viability
A general note: Sulforhodamine B stains cellular protein and so reports cell mass.

For series [2], the system named is human osteosarcoma cells (MG-63). The experiment in a line: Assessment of cytotoxicity by SRB assay, MG-63 cells. Type of series: cell-based. The conditions noted are these: 0.01 μM to 100 μM, 72 h. The procedure: as §1, §2, §3

`COc1ccc(-c2c(C#N)c(N)nc3c2C(c2ccc(OC)cc2)c2sc(=O)[nH]c2O3)cc1` (stereo not drawn) [Compound 2, 6-amino-8,9-di(4-methoxyphenyl)-2-oxo-3,9-dihydro-2H-[1,3]thiazolo[5′,4′:5,6]pyrano[2,3-b]pyridine-7-carbonitrile] came in with a melting point of 234 to 236 °C. Also, the “antiproliferative activities against cancer cells (PC3)” value in series [1] is on record as “excellent antiproliferative activities”. For the same compound, in series [2], the “antiproliferative activities against osteosarcoma (MG-63) cells” value is “excellent antiproliferative activities”.

Source of the values: patent US11897901B1, “6-amino-8,9-di(4-methoxyphenyl)-2-oxo-3,9-dihydro-2H-[1,3]thiazolo[5′,4′:5,6]pyrano[2,3-b]pyridine-7-carbonitrile as anticancer compound” (KING FAISAL UNIVERSITY, priority 2023, dated 2024).
